Laboratory results taken from article PMC4007060 (Journal of neuroimmune pharmacology : the official journal …, 2010).
“Also recorded” adds a separate entry of the source. Read-outs that look alike come from different tables or passages of the source.

Experiments:
[1] = test system: mouse spleen cells, antibody response to sheep red blood cells; conditions: morphine positive control; ref Rahim et al, 2001; cited from earlier work
ORL-1 [2] = conditions: in vitro; ref Knoflach et al, 1996; Reinscheid et al, 1995; cited from earlier work
ORL-1 [3] = conditions: in vivo; ref Chen et al, 2001; cited from earlier work
mouse spleen cells [4] = conditions: 2 hrs pretreatment, same PFC assay; ref Eisenstein et al, 1995; cited from earlier work
human monocytes = conditions: 10^−6 M naloxone; ref Trombella et al, 2005; cited from earlier work
[5] = test system: C-1 A-APA (affinity-purified rabbit antiserum to N/OFQ); assay: Solid-phase RIA, displacement of; format: binding; conditions: for cross-reactivity in RIA: competitive peptide 1 × 10^−6 M to 1.5 × 10^−12 M
[6] = test system: C-4 A-APA (affinity-purified rabbit antiserum to N/OFQ); assay: Solid-phase RIA, displacement of; format: binding; conditions: for cross-reactivity in RIA: competitive peptide 1 × 10^−6 M to 1.5 × 10^−12 M
C-1 A-APA = assay: Dot-blot cross-reactivity, C-1 A-APA; format: binding, rabbit; conditions: membrane-spotted peptides
C-4 A-APA = assay: Dot-blot cross-reactivity, C-4 A-APA; format: binding, rabbit; conditions: membrane-spotted peptides
mouse spleen cells [7] = assay: Primary in vitro plaque-forming cell; format: cell-based, mouse (C3HeB/FeJ); conditions: primary PFC assay
[8] = test system: mouse spleen cells, antibody response to sheep red blood cells; conditions: s.c. Alzet pump, 48 hr
[9] = test system: Con A activated rat splenocytes; conditions: ref Miller and Fulford, 2007, cited from earlier work
human T cells = conditions: cited from earlier work
delta opioid receptor = conditions: ref Mollereau et al, 1994; Pan et al, 1995; cited from earlier work
mu opioid receptor = conditions: ref Mollereau et al, 1994; Pan et al, 1995; cited from earlier work
kappa opioid receptor = conditions: ref Mollereau et al, 1994; Pan et al, 1995; cited from earlier work
[10] = test system: human monocytes and monocyte-like cell lines (CCL2/MCP-1, CCL5/RANTES); conditions: CCL2/MCP-1 and CCL5/RANTES; ref Kaminsky and Rogers, 2008; cited from earlier work
astrocyte cultures = conditions: lipopolysaccharide in vitro; ref Fu et al, 2007; cited from earlier work
astrocytes = conditions: peripheral administration of an inflammatory stimulus; ref Fu et al, 2007; cited from earlier work
[11] = test system: mouse spleen (TNF-α and IFN-γ mRNA); conditions: in vivo; cited from earlier work
ORL-1 receptor = conditions: cited from earlier work

CN1CC[C@]23c4c5ccc(O)c4O[C@H]2[C@@H](O)C=C[C@H]3[C@H]1C5 [morphine]
dose producing maximal immunosuppression [1]: 0.5 mg/kg/day

C=CCN1CC[C@]23c4c5ccc(O)c4O[C@H]2C(=O)CC[C@@]3(O)[C@H]1C5 [naloxone]
naloxone sensitivity of ORL-1 activity (ORL-1 [2]): naloxone insensitive | naloxone sensitivity of ORL-1 activity (ORL-1 [3]): naloxone insensitive | block of immunosuppressive effect of morphine and U50488 (mouse spleen cells [4]): completely blocked the immunosuppressive effect of morphine and of the kappa agonist, U50488 | effect of naloxone on chemotaxis induced by the peptide (human monocytes): did not block human monocyte chemotaxis

BAM-18
cross-reactivity in RIA [5]: no significant cross-reactivity; also recorded: No significant cross-reactivities were detected | cross-reactivity in RIA [6]: did not show significant cross-reactivity; also recorded: No significant cross-reactivities were detected | dot-blot reactivity (C-1 A-APA): not to classical opioid | dot-blot reactivity (C-4 A-APA): not to classical opioid

Dynorphin A1-17
cross-reactivity in RIA [5]: no significant cross-reactivity | cross-reactivity in RIA ([5]; listed as Dynorphin A1-17): No significant cross-reactivities were detected | cross-reactivity in RIA [6]: did not show significant cross-reactivity | cross-reactivity in RIA ([6]; listed as Dynorphin A1-17): No significant cross-reactivities were detected

Tyr-Gly-Gly-Gly-Met [Met-enkephalin, Met-Enkephalin]
dot-blot reactivity (C-1 A-APA): not to classical opioid | dot-blot reactivity (C-4 A-APA): not to classical opioid

Tyr-Gly-Gly-Phe-Leu [Leu-enkephalin, Leu-Enkephalin]
cross-reactivity in RIA [5]: no significant cross-reactivity | cross-reactivity in RIA ([5]; listed as Leu-Enkephalin): No significant cross-reactivities were detected | cross-reactivity in RIA [6]: did not show significant cross-reactivity | cross-reactivity in RIA ([6]; listed as Leu-Enkephalin): No significant cross-reactivities were detected | dot-blot reactivity (C-1 A-APA): not to classical opioid | dot-blot reactivity (C-4 A-APA): not to classical opioid

nociceptin/orphanin FQ [N/OFQ]
suppression of antibody formation (mouse spleen cells [7]): suppressed antibody formation to sheep red blood cells; also recorded: suppresses both the secondary and primary plaque-forming cell assay | IC80 ([5]; solid-phase RIA, C-1 A-APA): 2900 pM | IC20 ([6]; read-out: smallest measurable displacement, IC20, solid-phase RIA, C-4 A-APA): 62 pM | IC80 ([6]; solid-phase RIA, C-4 A-APA): 710 pM | dot-blot reactivity (C-1 A-APA): showed reactivity to the three nociceptin peptides | dot-blot reactivity (C-4 A-APA): showed reactivity to the three nociceptin peptides | dose of maximal immunosuppression [8]: 0.05 mg/kg/day | inhibition of proliferation ([9]; Con A activated rat splenocytes): inhibit the proliferation | inhibition of IL-2 production ([9]; in vitro): inhibit the proliferation of Con A activated rat splenocytes, as well as the production of IL-2 | CD28 expression (human T cells): up-regulated expression of the co-stimulatory molecule CD28 | CTLA-4 expression (human T cells): upregulate CTLA-4 | PGE2 induction (human T cells): induced PGE2 | proliferation (human T cells): increased proliferation | binding (delta opioid receptor): does not bind | binding (mu opioid receptor): does not bind | binding (kappa opioid receptor): does not bind | chemokine production [10]: suppress the production of chemokine proteins | mRNA for TNF-α, IL-1β, and IL-6 (astrocyte cultures): decrease expression of mRNA | mRNA for TNF-α, IL-1β, and IL-6 (astrocytes): decrease expression of mRNA | mRNA for TNF-α and IFN-γ in spleens [11]: increased levels of mRNA | forskolin-induced cAMP accumulation (ORL-1 receptor): inhibition of forskolin-induced cAMP accumulation
